Test results published in the NIST ThermoML archive (doi:10.1016/j.jct.2014.07.018).
± gives the expanded uncertainty stated by the source.

Experiment: molar heat capacity at constant pressure
Conditions: 101.33 kPa, Vacuum adiabatic calorimetry

CCC[n+]1ccn(C)c1.[Br-] [1-methyl-3-propylimidazolium bromide]
molar heat capacity at constant pressure (147.83 K, Crystal 2): 133.2 ± 0.6 J/K/mol | molar heat capacity at constant pressure (148.11 K, Glass): 140.8 ± 0.6 J/K/mol | molar heat capacity at constant pressure (149.71 K, Crystal 2): 134.1 ± 0.6 J/K/mol | molar heat capacity at constant pressure (149.83 K, Crystal 2): 134.2 ± 0.6 J/K/mol | molar heat capacity at constant pressure (150 K, Crystal 2): 134.3 ± 0.6 J/K/mol | molar heat capacity at constant pressure (150 K, Glass): 141.9 ± 0.6 J/K/mol | molar heat capacity at constant pressure (150.11 K, Glass): 141.9 ± 0.6 J/K/mol | molar heat capacity at constant pressure (151.82 K, Crystal 2): 135.2 ± 0.6 J/K/mol | molar heat capacity at constant pressure (151.83 K, Crystal 2): 135.2 ± 0.6 J/K/mol | molar heat capacity at constant pressure (152.11 K, Glass): 143.1 ± 0.6 J/K/mol | molar heat capacity at constant pressure (153.84 K, Crystal 2): 136.2 ± 0.6 J/K/mol | molar heat capacity at constant pressure (153.93 K, Crystal 2): 136.3 ± 0.6 J/K/mol | molar heat capacity at constant pressure (154.12 K, Glass): 144.2 ± 0.6 J/K/mol | molar heat capacity at constant pressure (155.85 K, Crystal 2): 137.2 ± 0.6 J/K/mol | molar heat capacity at constant pressure (156.04 K, Crystal 2): 137.3 ± 0.6 J/K/mol | molar heat capacity at constant pressure (156.13 K, Glass): 145.4 ± 0.6 J/K/mol | molar heat capacity at constant pressure (157.86 K, Crystal 2): 138.3 ± 0.6 J/K/mol | molar heat capacity at constant pressure (158.13 K, Glass): 146.5 ± 0.6 J/K/mol | molar heat capacity at constant pressure (158.16 K, Crystal 2): 138.4 ± 0.6 J/K/mol | molar heat capacity at constant pressure (159.86 K, Crystal 2): 139.3 ± 0.6 J/K/mol | molar heat capacity at constant pressure (160 K, Crystal 2): 139.3 ± 0.6 J/K/mol | molar heat capacity at constant pressure (160 K, Glass): 147.5 ± 0.7 J/K/mol | molar heat capacity at constant pressure (160.14 K, Glass): 147.6 ± 0.6 J/K/mol | molar heat capacity at constant pressure (160.27 K, Crystal 2): 139.5 ± 0.6 J/K/mol | molar heat capacity at constant pressure (161.87 K, Crystal 2): 140.2 ± 0.6 J/K/mol | molar heat capacity at constant pressure (162.15 K, Glass): 148.7 ± 0.6 J/K/mol | molar heat capacity at constant pressure (162.38 K, Crystal 2): 140.6 ± 0.6 J/K/mol | molar heat capacity at constant pressure (163.88 K, Crystal 2): 141.3 ± 0.6 J/K/mol | molar heat capacity at constant pressure (164.17 K, Glass): 149.8 ± 0.7 J/K/mol | molar heat capacity at constant pressure (164.5 K, Crystal 2): 141.6 ± 0.6 J/K/mol | molar heat capacity at constant pressure (165.89 K, Crystal 2): 142.3 ± 0.6 J/K/mol | molar heat capacity at constant pressure (166.18 K, Glass): 151 ± 0.7 J/K/mol | molar heat capacity at constant pressure (166.61 K, Crystal 2): 142.6 ± 0.6 J/K/mol | molar heat capacity at constant pressure (167.9 K, Crystal 2): 143.3 ± 0.6 J/K/mol | molar heat capacity at constant pressure (168.19 K, Glass): 152.2 ± 0.7 J/K/mol | molar heat capacity at constant pressure (168.73 K, Crystal 2): 143.7 ± 0.6 J/K/mol | molar heat capacity at constant pressure (169.91 K, Crystal 2): 144.4 ± 0.6 J/K/mol | molar heat capacity at constant pressure (170 K, Crystal 2): 144.4 ± 0.6 J/K/mol | molar heat capacity at constant pressure (170 K, Glass): 153.2 ± 0.7 J/K/mol | molar heat capacity at constant pressure (170.21 K, Glass): 153.3 ± 0.7 J/K/mol | molar heat capacity at constant pressure (170.84 K, Crystal 2): 144.8 ± 0.6 J/K/mol | molar heat capacity at constant pressure (171.92 K, Crystal 2): 145.4 ± 0.6 J/K/mol | molar heat capacity at constant pressure (172.22 K, Glass): 154.5 ± 0.7 J/K/mol | molar heat capacity at constant pressure (172.95 K, Crystal 2): 146.1 ± 0.6 J/K/mol | molar heat capacity at constant pressure (173.94 K, Crystal 2): 146.6 ± 0.6 J/K/mol | molar heat capacity at constant pressure (174.24 K, Glass): 155.6 ± 0.7 J/K/mol | molar heat capacity at constant pressure (175.06 K, Crystal 2): 147.4 ± 0.6 J/K/mol | molar heat capacity at constant pressure (175.95 K, Crystal 2): 147.9 ± 0.6 J/K/mol | molar heat capacity at constant pressure (176.26 K, Glass): 156.8 ± 0.7 J/K/mol | molar heat capacity at constant pressure (177.17 K, Crystal 2): 148.7 ± 0.6 J/K/mol | molar heat capacity at constant pressure (177.96 K, Crystal 2): 149.1 ± 0.6 J/K/mol | molar heat capacity at constant pressure (178.28 K, Glass): 158 ± 0.7 J/K/mol | molar heat capacity at constant pressure (179.28 K, Crystal 2): 149.8 ± 0.7 J/K/mol | molar heat capacity at constant pressure (179.98 K, Crystal 2): 150.2 ± 0.7 J/K/mol | molar heat capacity at constant pressure (180 K, Crystal 2): 150.2 ± 0.7 J/K/mol | molar heat capacity at constant pressure (180 K, Glass): 159.1 ± 0.7 J/K/mol | molar heat capacity at constant pressure (180.3 K, Glass): 159.2 ± 0.7 J/K/mol | molar heat capacity at constant pressure (181.39 K, Crystal 2): 150.9 ± 0.7 J/K/mol | molar heat capacity at constant pressure (182 K, Crystal 2): 151.2 ± 0.7 J/K/mol | molar heat capacity at constant pressure (182.32 K, Glass): 160.4 ± 0.7 J/K/mol | molar heat capacity at constant pressure (183.49 K, Crystal 2): 152 ± 0.7 J/K/mol | molar heat capacity at constant pressure (184.02 K, Crystal 2): 152.2 ± 0.7 J/K/mol | molar heat capacity at constant pressure (184.34 K, Glass): 161.7 ± 0.7 J/K/mol | molar heat capacity at constant pressure (185.6 K, Crystal 2): 153 ± 0.7 J/K/mol | molar heat capacity at constant pressure (186.04 K, Crystal 2): 153.2 ± 0.7 J/K/mol | molar heat capacity at constant pressure (186.37 K, Glass): 162.9 ± 0.7 J/K/mol | molar heat capacity at constant pressure (187.7 K, Crystal 2): 154.1 ± 0.7 J/K/mol | molar heat capacity at constant pressure (188.06 K, Crystal 2): 154.3 ± 0.7 J/K/mol | molar heat capacity at constant pressure (188.39 K, Glass): 164.2 ± 0.7 J/K/mol | molar heat capacity at constant pressure (189.8 K, Crystal 2): 155.2 ± 0.7 J/K/mol | molar heat capacity at constant pressure (190 K, Crystal 2): 155.3 ± 0.7 J/K/mol | molar heat capacity at constant pressure (190 K, Glass): 164.3 ± 0.7 J/K/mol | molar heat capacity at constant pressure (190.08 K, Crystal 2): 155.3 ± 0.7 J/K/mol | molar heat capacity at constant pressure (190.42 K, Glass): 165.5 ± 0.7 J/K/mol | molar heat capacity at constant pressure (191.9 K, Crystal 2): 156.2 ± 0.7 J/K/mol | molar heat capacity at constant pressure (192.1 K, Crystal 2): 156.3 ± 0.7 J/K/mol | molar heat capacity at constant pressure (192.45 K, Glass): 166.9 ± 0.7 J/K/mol | molar heat capacity at constant pressure (194 K, Crystal 2): 157.3 ± 0.7 J/K/mol | molar heat capacity at constant pressure (194.12 K, Crystal 2): 157.4 ± 0.7 J/K/mol | molar heat capacity at constant pressure (194.48 K, Glass): 168.3 ± 0.7 J/K/mol | molar heat capacity at constant pressure (196.1 K, Crystal 2): 158.4 ± 0.7 J/K/mol | molar heat capacity at constant pressure (196.15 K, Crystal 2): 158.4 ± 0.7 J/K/mol | molar heat capacity at constant pressure (196.52 K, Glass): 169.7 ± 0.7 J/K/mol | molar heat capacity at constant pressure (198.17 K, Crystal 2): 159.4 ± 0.7 J/K/mol | molar heat capacity at constant pressure (198.2 K, Crystal 2): 159.4 ± 0.7 J/K/mol | molar heat capacity at constant pressure (198.56 K, Glass): 171.3 ± 0.7 J/K/mol | molar heat capacity at constant pressure (200 K, Crystal 2): 160.4 ± 0.7 J/K/mol | molar heat capacity at constant pressure (200 K, Glass): 171.3 ± 0.7 J/K/mol | molar heat capacity at constant pressure (200.2 K, Crystal 2): 160.5 ± 0.7 J/K/mol | molar heat capacity at constant pressure (200.29 K, Crystal 2): 160.5 ± 0.7 J/K/mol | molar heat capacity at constant pressure (200.61 K, Glass): 173 ± 0.7 J/K/mol | molar heat capacity at constant pressure (202.22 K, Crystal 2): 161.6 ± 0.7 J/K/mol | molar heat capacity at constant pressure (202.39 K, Crystal 2): 161.7 ± 0.7 J/K/mol | molar heat capacity at constant pressure (202.66 K, Glass): 174.7 ± 0.7 J/K/mol | molar heat capacity at constant pressure (204.25 K, Crystal 2): 162.6 ± 0.7 J/K/mol | molar heat capacity at constant pressure (204.48 K, Crystal 2): 162.8 ± 0.7 J/K/mol | molar heat capacity at constant pressure (204.71 K, Glass): 177.1 ± 0.8 J/K/mol | molar heat capacity at constant pressure (206.28 K, Crystal 2): 163.8 ± 0.7 J/K/mol | molar heat capacity at constant pressure (206.57 K, Crystal 2): 163.9 ± 0.7 J/K/mol | molar heat capacity at constant pressure (206.79 K, Glass): 179.5 ± 0.8 J/K/mol | molar heat capacity at constant pressure (208.31 K, Crystal 2): 164.9 ± 0.7 J/K/mol | molar heat capacity at constant pressure (208.66 K, Crystal 2): 165.1 ± 0.7 J/K/mol | molar heat capacity at constant pressure (208.84 K, Glass): 183.4 ± 0.8 J/K/mol | molar heat capacity at constant pressure (210 K, Crystal 2): 165.9 ± 0.7 J/K/mol | molar heat capacity at constant pressure (210 K, Glass): 183.6 ± 0.8 J/K/mol | molar heat capacity at constant pressure (210.35 K, Crystal 2): 166 ± 0.7 J/K/mol | molar heat capacity at constant pressure (210.75 K, Crystal 2): 166.3 ± 0.7 J/K/mol | molar heat capacity at constant pressure (210.87 K, Glass): 189.3 ± 0.8 J/K/mol | molar heat capacity at constant pressure (212.38 K, Crystal 2): 167.3 ± 0.7 J/K/mol | molar heat capacity at constant pressure (212.84 K, Crystal 2): 167.5 ± 0.7 J/K/mol | molar heat capacity at constant pressure (212.85 K, Glass): 201.5 ± 0.9 J/K/mol | molar heat capacity at constant pressure (214.41 K, Crystal 2): 168.5 ± 0.7 J/K/mol | molar heat capacity at constant pressure (214.71 K, Liquid): 229.7 ± 1 J/K/mol | molar heat capacity at constant pressure (214.92 K, Crystal 2): 168.8 ± 0.7 J/K/mol | molar heat capacity at constant pressure (216.44 K, Crystal 2): 169.7 ± 0.7 J/K/mol | molar heat capacity at constant pressure (216.52 K, Liquid): 256.1 ± 1.1 J/K/mol | molar heat capacity at constant pressure (217 K, Crystal 2): 170.1 ± 0.7 J/K/mol | molar heat capacity at constant pressure (218.48 K, Crystal 2): 170.9 ± 0.7 J/K/mol | molar heat capacity at constant pressure (218.48 K, Liquid): 258.4 ± 1.1 J/K/mol | molar heat capacity at constant pressure (219.08 K, Crystal 2): 171.3 ± 0.7 J/K/mol | molar heat capacity at constant pressure (220 K, Crystal 2): 171.8 ± 0.7 J/K/mol | molar heat capacity at constant pressure (220 K, Liquid): 258.4 ± 1.1 J/K/mol | molar heat capacity at constant pressure (220.51 K, Crystal 2): 172.1 ± 0.7 J/K/mol | molar heat capacity at constant pressure (220.52 K, Liquid): 259.6 ± 1.1 J/K/mol | molar heat capacity at constant pressure (221.15 K, Crystal 2): 172.5 ± 0.7 J/K/mol | molar heat capacity at constant pressure (222.55 K, Crystal 2): 173.3 ± 0.7 J/K/mol | molar heat capacity at constant pressure (223.22 K, Crystal 2): 173.7 ± 0.7 J/K/mol | molar heat capacity at constant pressure (224.59 K, Crystal 2): 174.5 ± 0.7 J/K/mol | molar heat capacity at constant pressure (225.29 K, Crystal 2): 175 ± 0.8 J/K/mol | molar heat capacity at constant pressure (226.63 K, Crystal 2): 175.8 ± 0.8 J/K/mol | molar heat capacity at constant pressure (227.36 K, Crystal 2): 176.2 ± 0.8 J/K/mol
